The values below are quoted from earlier work in patent EP0858808B1, “Peptides for use in wound treatment” (Johnson & Johnson Medical Ltd., priority 1997, dated 2003).

This data set has as its system human fibroblast. To be noted: concentration range 2.5 mM to 25 mM.

As for Gly-Pro-Ala, the chemotactic activity result is on record as “no chemotactic activity”.
